Where two headings read alike, the source gives them in different places.
Experiments:
[1] = Liver microsome protein binding, dog; type: in vitro ADME; conditions: beagle, liver microsomes, pH 7.4
Experimental: (§3) After incubation for 20 min, a portion of the whole blood was centrifuged at 2500× g for 10 min at 4 °C to separate plasma; another portion of the whole blood was subjected to three cycles of freeze–thawing and ultrasonicated for 10 min to disrupt cells. Equal volumes of plasma and whole blood samples were added to the whole blood and plasma specimens, respectively, followed by protein precipitation with acetonitrile containing an internal standard (IS). […] The RED inserts were placed in the matching incubation plate: 200 µL of drug-containing matrix were added to the sample chamber, and 400 µL of PBS buffer (pH: 7.4) were added to the buffer chamber. After incubation in a constant-temperature shaking incubator for 6 h (37 °C), samples from the sample chamber and buffer chamber were diluted 1:1 with PBS or matrix, respectively, and proteins were precipitated with acetonitrile containing IS.

[2] = Pharmacokinetics of MT, 6-HMT and CBD in beagles after oral administration; conditions: beagle
Experimental: Twelve male healthy adult beagles (weighing 10 ± 2 kg) were randomly divided into two groups. […] The drugs were dissolved in a physiological saline solution containing 5% castor oil, with an administration volume of 2 mL/kg. Blood samples were collected at the time points of pre-administration and 0.083, 0.25, 0.5, 0.75, 1, 1.5, 2, 4, 6, 8, and 12 h post-administration.
(§1) The column temperature was set at 40 °C.

[3] = Brain tissue protein binding, rat; type: in vitro ADME; conditions: pH 7.4
Experimental: as §3

[4] = Liver microsome protein binding, human; type: in vitro ADME; conditions: liver microsomes, pH 7.4
Experimental: as §3

[5] = Pharmacokinetics of MT and CBD in rats after pre-administration of ABT; conditions: p.o. MT + CBD (5 + 20) mg/kg
Experimental: Twelve SD rats were randomly divided into two groups. Both groups were first given an intragastric administration of 1-aminobenzotriazole (ABT) at a dose of 200 mg/kg. […] The administration volume for all groups was 5 mL/kg. […] Approximately 50 μL of venous blood were collected into heparin sodium anticoagulant tubes and placed on ice. The sample processing and storage methods were the same as described previously.
Subsequently, the resultant mixture was vortexed for 1 minute and centrifuged at 4 °C for 10 min at 18,800× g. […] The lowest limit of quantification (LLOQ) was established at 2 ng/mL.
Kromasil 100-5-C8 (2.1 × 50 mm) was selected for the separation of samples. The mobile phase consisted of solvent A (water with 0.1% formic acid and 5 mM ammonium acetate) and solvent B (methanol with 0.1% formic acid). […] The column temperature was set at 40 °C. The two eluents were 0.1% formic acid and 5 mM ammonium acetate in water (A) and 0.1% formic acid in methanol (B). […] The main mass spectrometry detection parameters were: dry gas 10 L/min, heated gas 10 L/min, collision gas 270 kPa, ion source temperature 300 °C, desolvation temperature 250 °C, and heating module temperature 400 °C.
Pharmacokinetic parameters: GraphPad Prism 10.1 software was utilized to draw the curves. Noncompartmental analysis was selected to calculate the major PK parameters, including clearance (CL), volume (V), half-life (t1/2), peak concentration (Cmax), and area under the curve (AUC), using WinNonlin 8.1.

[6] = Plasma protein binding (rapid equilibrium dialysis), dog; conditions: beagle
Experimental: as §3

[7] = Plasma protein binding (rapid equilibrium dialysis), rat; type: in vitro ADME
Experimental: as §3

[8] = Pharmacokinetics of MT, 6-HMT and CBD in SD rats (i.v. and oral); conditions: rat; for half-life / AUC(0-t) / AUC(0-inf) / Cmax / MRT last / Tmax: Sprague-Dawley; for half-life: in vivo, t1/2, rats; for AUC(0-t) / AUC(0-inf) / Cmax / MRT last / Tmax: plasma; for MRT last: MRT(0–t)
Experimental: The drugs were dissolved in the same manner as described previously, with an administration volume of 5 mL/kg for all groups. Blood samples were collected at the time points of pre-administration and 0.033 (only for the intravenous administration group), 0.083, 0.25, 0.5, 0.75, 1, 1.5, 2, 4, 6, 8, and 12 h post-administration.
as §1

[9] = biological target: T1, PEPT1 (Homo sapiens, UniProt P46059); test: Uptake and uptake inhibition in MDCK/hPEPT1 cell model; type: cell-based; conditions: MDCK
T1 construct: host or cells: MDCK
T1 sequence (P46059 1-708): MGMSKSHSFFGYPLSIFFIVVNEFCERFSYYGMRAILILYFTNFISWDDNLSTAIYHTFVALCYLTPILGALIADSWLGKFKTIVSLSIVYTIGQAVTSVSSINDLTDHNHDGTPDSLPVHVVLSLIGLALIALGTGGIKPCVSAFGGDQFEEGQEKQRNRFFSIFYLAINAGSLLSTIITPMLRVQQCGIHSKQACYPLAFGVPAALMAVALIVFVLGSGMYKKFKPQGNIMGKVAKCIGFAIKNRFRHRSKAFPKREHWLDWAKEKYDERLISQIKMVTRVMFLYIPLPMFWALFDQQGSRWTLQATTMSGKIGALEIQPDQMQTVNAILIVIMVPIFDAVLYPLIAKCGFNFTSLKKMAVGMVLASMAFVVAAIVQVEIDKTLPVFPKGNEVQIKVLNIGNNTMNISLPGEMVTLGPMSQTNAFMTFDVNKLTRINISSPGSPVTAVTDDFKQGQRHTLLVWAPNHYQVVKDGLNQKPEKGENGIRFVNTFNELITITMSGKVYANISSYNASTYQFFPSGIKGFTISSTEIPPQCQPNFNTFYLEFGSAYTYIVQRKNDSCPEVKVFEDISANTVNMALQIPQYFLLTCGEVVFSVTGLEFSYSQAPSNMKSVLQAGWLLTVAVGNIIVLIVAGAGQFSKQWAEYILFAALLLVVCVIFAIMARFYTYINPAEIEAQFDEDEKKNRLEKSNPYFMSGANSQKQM
Experimental: MDCK-PEPT1 cells were seeded into 24-well plates at a density of approximately 5 × 10^5 cells per well. When the cell confluency reached 60–70%, the culture medium was aspirated, and the cells were rinsed twice with HBSS pre-warmed to 37 °C. […] After incubation at 37 °C for 10 min, the buffer was aspirated, and ice-cold HBSS was immediately added to terminate the reaction, followed by rinsing three times. After drying the residual liquid, 200 μL of pure water were added to each well, and the cells were lysed by repeated freezing–thawing in liquid nitrogen three times. The cell lysates were collected, and the protein content was determined by the BCA method.
Cell uptake assessment: The concentration of the analyte in cells was corrected using the protein concentration of the cell lysate in each well.(4) Conclysate=Concdrug/ConcProtein
The uptake rate (U, pmol/mg/min) of the compound was calculated following Formula (5).(5) U=Clysate/P×t where Clysate is the amount of drug in the cell lysate (ng); P is cellular protein content (mg); t is incubation time (min).
The uptake ratio of the compound was calculated following Formula (6)(6) UR=U/ UMOCK where UMOCK is the uptake rate in MOCK-MDCK cells (pmol/mg/min).
The inhibition ratio was calculated following Formula (7)(7) IR=(1−Uwith inhibitor−Umock with inhibitor/Uwithout inhibitor−Umock without inhibitor)×100%

[10] = Plasma protein binding (rapid equilibrium dialysis), human; type: in vitro ADME; conditions: pH 7.4, human
Experimental: as §3

[11] = Plasma protein binding (rapid equilibrium dialysis), mouse; type: in vitro ADME; conditions: pH 7.4
Experimental: as §3

[12] = Liver microsome protein binding, rat; type: in vitro ADME; conditions: liver microsomes, pH 7.4
[13] = test system: CYP1A2-mediated metabolism of MT; test: Static DDI model prediction of CBD's impact on MT exposure, rat; conditions: CBD dose 5 mg
Description: (§2) (AUC when co-administered with the inhibitor) to AUC[contr] (AUC without the inhibitor).

[14] = test system: CYP1A2-mediated metabolism of MT; test: Static DDI model prediction of CBD's impact on MT exposure, beagle; set-up: species or system beagle dog; conditions: CBD dose 30 mg
Description: as §2

[15] = po, 20 mg/kg, rats, p.o., MT + CBD (20 + 20) mg/kg
[16] = po, 20 mg/kg, rats, p.o., Vehicle + CBD 20 mg/kg
[17] = male, po, 20 mg/kg, rats, p.o., MT + CBD (5 + 20) mg/kg

C=C(C)[C@@H]1CCC(C)=C[C@H]1c1c(O)cc(CCCCC)cc1O [CBD, Cannabidiol]
fraction unbound at 6 h [1]: 0.0018
Ka (oral absorption rate) ([2]; calculated as 0.693/(tmax/5)): 3.77
Cmax ([2]; male, dog, plasma, oral): 1310 nM
fraction unbound at 6 h [3]: 0.0006
fraction unbound at 6 h [4]: 0.0073
AUC(0–t) of CBD in ABT-model rats relative to control group [5]: approximately 1.68 fold
fu, p (free fraction in plasma) [6]: 0.33%
fraction unbound at 6 h ([6]; dog, plasma, pH 7.4): 0.0033
fu, p (free fraction in plasma) [7]: 0.25%
fraction unbound at 6 h ([7]; plasma, pH 7.4): 0.0025
half-life ([8]; po, 20 mg/kg, p.o., MT + CBD (20 + 20) mg/kg): 160 min
half-life ([8]; po, 20 mg/kg, p.o., Vehicle + CBD 20 mg/kg): 213 min
AUC(0-t) [8, 15]: 1390 ng·h/mL
AUC(0-t) [8, 16]: 1570 ng·h/mL
AUC(0-inf) [8, 15]: 1410 ng·h/mL
AUC(0-inf) [8, 16]: 1590 ng·h/mL
Cmax [8, 15]: 519 ng/mL
Cmax [8, 16]: 704 ng/mL
MRT last [8, 15]: 2.71 h
MRT last [8, 16]: 3.11 h
Tmax [8, 15]: 1.21 h
Tmax [8, 16]: 0.92 h
half-life ([8]; male, po, 20 mg/kg, p.o., MT + CBD (5 + 20) mg/kg): 248 min
Cmax ([8]; male, oral, parameter of CBD for static DDI model): 1620 nM
AUC(0-t) [8, 17]: 1590 ng·h/mL
AUC(0-inf) [8, 17]: 1610 ng·h/mL
Cmax [8, 17]: 510 ng/mL
MRT last [8, 17]: 3.85 h
Tmax [8, 17]: 1.5 h
Ka (oral absorption rate) ([8]; calculated as 0.693/(tmax/5)): 2.31
inhibition at 500 µM ([9]; 500 μM CBD, 100 μM MT, 4 °C, read-out: uptake inhibition rate of MT): 2.7%
inhibition at 500 µM ([9]; 500 μM CBD, 100 μM MT, 37 °C, read-out: uptake inhibition rate of MT): 79.6%
inhibition at 500 µM ([9]; pH 6.3, 500 μM CBD, 100 μM Gly, pH 6.3, 37 °C, read-out: inhibition rate on the uptake of Gly via PEPT1): 46.7%
inhibition at 500 µM ([9]; pH 6.3, 500 μM CBD, 100 μM UBEN, pH 6.3, 37 °C, read-out: inhibition rate on the uptake of UBEN via PEPT1): 55.8%
fraction unbound at 6 h ([10]; read-out: Plasma Protein Binding (converted)): 0.001
fraction unbound at 6 h ([10]; read-out: fu, p (free fraction in plasma)): 0.0001
fraction unbound at 6 h [11]: 0.0029
fraction unbound at 6 h [12]: 0.0055
[I]h (estimated free concentration in liver) [13]: 0.74 nM
[I]h (estimated free concentration in liver) [14]: 1.37 nM
